Test results from patent US8026368B2, “Hydrazide compounds and thrombopoietin receptor activators” (Nissan Chemical Industries, Ltd., priority 2005, dated 2011).

Legend:
[1] = molecular target: T1, human thrombopoietin receptor (c-mpl) (Homo sapiens, UniProt P40238); test: Stimulation of proliferation of thrombopoietin-dependent cell line UT7/EPO-mpl (WST-8); assay type: cell-based; settings: human leukemic cell line UT-7/EPO-mpl, 4 days incubation, WST-8, relative to 10 ng/mL TPO; read-out: EC50 (concentration that yields a growth rate corresponding to 50% of the growth observed in the presence of 10 ng/mL TPO) (converted)
T1 construct: expressed in transfected cells
T1 sequence (P40238 26-635): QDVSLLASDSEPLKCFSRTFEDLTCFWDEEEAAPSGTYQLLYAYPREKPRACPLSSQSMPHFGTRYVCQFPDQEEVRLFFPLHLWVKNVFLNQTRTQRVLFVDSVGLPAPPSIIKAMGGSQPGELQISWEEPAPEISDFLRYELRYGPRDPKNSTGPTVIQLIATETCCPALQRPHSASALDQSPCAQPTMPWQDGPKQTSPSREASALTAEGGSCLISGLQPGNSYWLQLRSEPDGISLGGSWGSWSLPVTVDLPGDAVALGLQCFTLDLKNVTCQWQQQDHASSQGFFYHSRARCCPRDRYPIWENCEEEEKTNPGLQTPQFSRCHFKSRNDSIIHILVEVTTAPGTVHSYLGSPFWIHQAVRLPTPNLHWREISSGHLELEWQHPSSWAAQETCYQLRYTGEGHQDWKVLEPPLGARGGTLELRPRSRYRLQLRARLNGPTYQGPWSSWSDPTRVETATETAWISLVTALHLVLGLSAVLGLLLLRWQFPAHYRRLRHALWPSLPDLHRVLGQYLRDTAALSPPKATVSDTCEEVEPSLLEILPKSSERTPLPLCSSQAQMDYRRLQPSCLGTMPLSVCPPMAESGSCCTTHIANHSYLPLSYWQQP
Experimental: The responses of thrombopoietin receptor to the compounds of the present invention prepared in the Synthetic Examples were assayed using a human leukemic cell line, UT7/EPO-mpl.
UT7/EPO-mpl is a stable transformed cell line obtained by introducing into human leukemic cell line UT7/EPO a vector that induces expression of human thrombopoietin receptor (c-mpl) under control of cytomegalovirus immediate-early promoter by the method of Takatoku et al. (J. Biol. Chem., 272:7259-7263 (1997)). […] These two cell lines were subcultured in IMDM (GIBCO) containing 10% fetal bovine serum (Thermo Electron or BioWest) using a CO2 incubator (5% CO2, 37° C.).
The subcultured cells described above were washed twice with PBS and suspended in IMDM containing 10% fetal bovine serum at a cell density of 6×10^4 cells/ml. The cell suspension was transferred to a 96-well tissue culture plate (CORNING) in 100-μl aliquots. Then either thrombopoietin (Pepro Tech EC) or the compounds of the Synthetic Examples dissolved in dimethyl sulfoxide were diluted 83-fold with IMDM containing 10% fetal bovine serum and added to the aforementioned cell suspension in 20-μl aliquots. The cell suspension was incubated in a CO2 incubator (5% CO2, 37° C.) for 4 days. Cell proliferation was assayed using WST-8 reagent (Kishida Chemical Co., Ltd.) according to instructions by the manufacturer. A 10-μl aliquot of 5 mM WST-8 reagent solution was added to each well of the tissue culture plate, and the plate was incubated at 37° C. for 4 hours. The formazan pigment generated was detected by measuring the absorbance at 450 nm with a 96-well microplate reader (Nihon Molecular Devices, Spectramax 190).
The concentration of each compound that yields a growth rate corresponding to 50% of the growth of human leukemic cell line UT-7/EPO-mpl observed in the presence of 10 ng/mL TPO (EC50) in the test on the compounds of the Synthetic Examples in Assay Example 1 are shown in Table 16.

UT7/EPO = settings: cell line characterisation, Takatoku et al.; cited from earlier work
[2] = molecular target: T1, human thrombopoietin receptor (c-mpl); settings: cell line characterisation, Takatoku et al.; cited from earlier work

EC50 [1] [nM] | Molecule | other results
1.63 | CC1=NN(c2ccc(C)c(C)c2)C(=O)/C1=C(/C)NNC(=O)c1ccc(C(=O)NCc2ccncc2)s1 [Example 2] | –
5.63 | CC1=NN(c2ccc(C)c(C)c2)C(=O)/C1=C(/C)NNC(=O)c1ccc(C(=O)N2CC(O)C(O)C2)s1 (stereo not shown) [Example 3] | –
7.52 | CC1=NN(c2ccc(C)c(C)c2)C(=O)/C1=C(/C)NNC(=O)c1ccc(C(=O)N2CCCC2)s1 [Example 4] | –
6.16 | CC1=NN(c2ccc(C)c(C)c2)C(=O)/C1=C(/C)NNC(=O)c1ccc(C(=O)NN(C)C)s1 [Example 5] | –
3.58 | CC1=NN(c2ccc(C)c(C)c2)C(=O)/C1=C(/C)NNC(=O)c1ccc(C(=O)NCc2ccccn2)s1 [Example 7] | –
0.676 | CC1=NN(c2ccc(C)c(C)c2)C(=O)/C1=C(/C)NNC(=O)c1ccc(C(=O)NCc2cccnc2)s1 [Example 8] | –
8.89 | CC1=NN(c2ccc(C)c(C)c2)C(=O)/C1=C(/C)NNC(=O)c1ccc(C(=O)NCCC(=O)O)s1 [Example 9] | –
5.17 | CNC(=O)c1ccc(C(=O)NN/C(C)=C2\C(=O)N(c3ccc(C)c(C)c3)N=C2C)s1 [Example 10] | –
1.16 | CC1=NN(c2ccc(C(C)(C)C)cc2)C(=O)/C1=C(/C)NNC(=O)c1ccc(C(=O)NC(C)C)s1 [Example 11] | –
0.528 | CC1=NN(c2ccc(C(C)(C)C)cc2)C(=O)/C1=C(/C)NNC(=O)c1ccc(C(=O)NCc2ccncc2)s1 [Example 12] | –
1.01 | CC1=NN(c2ccc(C(C)(C)C)cc2)C(=O)/C1=C(/C)NNC(=O)c1ccc(C(=O)N2CC(O)C(O)C2)s1 (stereo not shown) [Example 13] | –
11.7 | CCN(CC)C(=O)c1ccc(C(=O)NN/C(C)=C2\C(=O)N(c3ccc(C(C)(C)C)cc3)N=C2C)s1 [Example 14] | –
5.27 | CC1=NN(c2ccc(C(C)(C)C)cc2)C(=O)/C1=C(/C)NNC(=O)c1ccc(C(=O)N2CCCC2)s1 [Example 15] | –
3.94 | CC1=NN(c2ccc(C(C)(C)C)cc2)C(=O)/C1=C(/C)NNC(=O)c1ccc(C(=O)NN(C)C)s1 [Example 16] | –
3.99 | CC1=NN(c2ccc(C(C)(C)C)cc2)C(=O)/C1=C(/C)NNC(=O)c1ccc(C(=O)N2CCC(N3CCCC3)CC2)s1 [Example 17] | –
5.03 | CC1=NN(c2ccc(C(C)(C)C)cc2)C(=O)/C1=C(/C)NNC(=O)c1ccc(C(=O)N2CCC(N(C)C)C2)s1 (stereo not shown) [Example 18] | –
2.64 | CC1=NN(c2ccc(C(C)(C)C)cc2)C(=O)/C1=C(/C)NNC(=O)c1ccc(C(=O)NCc2ccccn2)s1 [Example 19] | –
0.528 | CC1=NN(c2ccc(C(C)(C)C)cc2)C(=O)/C1=C(/C)NNC(=O)c1ccc(C(=O)NCc2cccnc2)s1 [Example 20] | –
1.2 | CC1=NN(c2ccc(C(C)(C)C)cc2)C(=O)/C1=C(/C)NNC(=O)c1ccc(C(=O)NN2CCOCC2)s1 [Example 21] | –
5.78 | COC1CN(C(=O)c2ccc(C(=O)NN/C(C)=C3\C(=O)N(c4ccc(C(C)(C)C)cc4)N=C3C)s2)CC1OC (stereo not shown) [Example 22] | –
6.23 | CC1=NN(c2ccc(C(C)(C)C)cc2)C(=O)/C1=C(/C)NNC(=O)c1ccc(C(=O)NCC(=O)O)s1 [Example 23] | –

EC50 [1] [nM] | Molecule | other results
5.86 | CC1=NN(c2ccc(C(C)(C)C)cc2)C(=O)/C1=C(/C)NNC(=O)c1ccc(C(=O)NCCC(=O)O)s1 [Example 24] | –
0.661 | CNC(=O)c1ccc(C(=O)NN/C(C)=C2\C(=O)N(c3ccc(C(C)(C)C)cc3)N=C2C)s1 [Example 25] | –
1.23 | COCCNC(=O)c1ccc(C(=O)NN/C(C)=C2\C(=O)N(c3ccc(C(C)(C)C)cc3)N=C2C)s1 [Example 26] | –
1.6 | CCCNC(=O)c1ccc(C(=O)NN/C(C)=C2\C(=O)N(c3ccc(C(C)(C)C)cc3)N=C2C)s1 [Example 27] | –
0.871 | CC1=NN(c2ccc(C(F)(F)F)cc2)C(=O)/C1=C(/C)NNC(=O)c1ccc(C(=O)NC(C)C)s1 [Example 28] | –
1.59 | CC1=NN(c2ccc(C(F)(F)F)cc2)C(=O)/C1=C(/C)NNC(=O)c1ccc(C(=O)NCc2ccncc2)s1 [Example 29] | –
5.02 | CC1=NN(c2ccc(C(F)(F)F)cc2)C(=O)/C1=C(/C)NNC(=O)c1ccc(C(=O)N2CC(O)C(O)C2)s1 (stereo not shown) [Example 30] | –
8.28 | CCN(CC)C(=O)c1ccc(C(=O)NN/C(C)=C2\C(=O)N(c3ccc(C(F)(F)F)cc3)N=C2C)s1 [Example 31] | –
6.53 | CC1=NN(c2ccc(C(F)(F)F)cc2)C(=O)C1=C(C)NNC(=O)c1ccc(C(=O)N2CCCC2)s1 [Example 32] | –
4.45 | CC1=NN(c2ccc(C(F)(F)F)cc2)C(=O)/C1=C(/C)NNC(=O)c1ccc(C(=O)NN(C)C)s1 [Example 33] | –
4.25 | CC1=NN(c2ccc(C(F)(F)F)cc2)C(=O)/C1=C(/C)NNC(=O)c1ccc(C(=O)N2CCC(N3CCCC3)CC2)s1 [Example 34] | –
6.93 | CC1=NN(c2ccc(C(F)(F)F)cc2)C(=O)/C1=C(/C)NNC(=O)c1ccc(C(=O)N2CCC(N(C)C)C2)s1 (stereo not shown) [Example 35] | –
5.46 | CC1=NN(c2ccc(Cl)c(Cl)c2)C(=O)/C1=C(/C)NNC(=O)c1ccc(C(=O)NC(C)C)s1 [Example 37] | –
4.97 | CC1=NN(c2ccc(Cl)c(Cl)c2)C(=O)/C1=C(/C)NNC(=O)c1ccc(C(=O)NCc2ccncc2)s1 [Example 38] | –
3.9 | CC1=NN(c2ccc(Cl)c(Cl)c2)C(=O)/C1=C(/C)NNC(=O)c1ccc(C(=O)N2CC(O)C(O)C2)s1 (stereo not shown) [Example 39] | –
5.65 | CC1=NN(c2ccc(Cl)c(Cl)c2)C(=O)/C1=C(/C)NNC(=O)c1ccc(C(=O)NN(C)C)s1 [Example 40] | –
4.75 | CC1=NN(c2ccc(Cl)c(Cl)c2)C(=O)/C1=C(/C)NNC(=O)c1ccc(C(=O)N2CCC(N3CCCC3)CC2)s1 [Example 41] | –
5.34 | CC1=NN(c2ccc(Cl)c(Cl)c2)C(=O)/C1=C(/C)NNC(=O)c1ccc(C(=O)NCc2ccccn2)s1 [Example 42] | –
4.6 | CC1=NN(c2ccc(Cl)c(Cl)c2)C(=O)/C1=C(/C)NNC(=O)c1ccc(C(=O)NCc2cccnc2)s1 [Example 43] | –
11.3 | COC1CN(C(=O)c2ccc(C(=O)NN/C(C)=C3\C(=O)N(c4ccc(Cl)c(Cl)c4)N=C3C)s2)CC1OC (stereo not shown) [Example 44] | –
– | TPO: Thrombopoietin (Pepro Tech EC), a cytokine consisting of 332 amino acids; reference stimulus at 10 ng/mL | Response of mother cell line UT7/EPO to TPO (UT7/EPO): no response; Proliferation of UT7/EPO-mpl cell line in response to TPO [2]: stimulated
